Reference: publication PMC12137875 (Nature Communications, 2025)
Where two headings read alike, the source gives them in different places.

Assays:
[1] = test system: URAT1CS; format: cell-based; conditions: HEK293T cells expressing hURAT1 versus URAT1CS
[2] = biological target: T1, hURAT1 (Homo sapiens, UniProt Q96S37); format: cell-based; conditions: for KT urate / Vmax: fit of the data set with this inhibitor, 95% CI; for Mode of inhibition of [14C]-urate uptake: competitive versus non-competitive fits
T1 sequence (Q96S37 1-553): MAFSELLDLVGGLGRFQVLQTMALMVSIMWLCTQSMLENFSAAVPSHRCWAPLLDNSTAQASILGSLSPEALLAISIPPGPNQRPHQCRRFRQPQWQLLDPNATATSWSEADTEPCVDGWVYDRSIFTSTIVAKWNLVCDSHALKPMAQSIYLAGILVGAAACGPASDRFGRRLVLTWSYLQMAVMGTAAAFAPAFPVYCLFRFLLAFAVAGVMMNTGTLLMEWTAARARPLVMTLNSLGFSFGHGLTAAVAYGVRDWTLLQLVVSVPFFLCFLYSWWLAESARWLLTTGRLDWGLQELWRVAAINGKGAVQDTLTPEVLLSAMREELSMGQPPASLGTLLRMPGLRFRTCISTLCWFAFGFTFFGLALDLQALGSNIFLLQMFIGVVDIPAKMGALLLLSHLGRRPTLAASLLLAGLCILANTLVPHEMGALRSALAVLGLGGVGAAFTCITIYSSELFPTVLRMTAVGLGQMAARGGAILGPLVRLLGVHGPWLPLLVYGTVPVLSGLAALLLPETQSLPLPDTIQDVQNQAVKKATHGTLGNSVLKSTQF

Inhibitor binding to URAT1CS as judged from IC50 [1] | KT urate ([2]; Competitive model) | Vmax ([2]; Competitive model) | KT urate ([2]; Non-competitive model) | Vmax ([2]; Non-competitive model) | Mode of inhibition of [14C]-urate uptake [2] | Structure (SMILES)
high affinity | 26.08 [11.29–48.59] µM | 1591 [1355–1846] pmol min^−1 mg^−1 | 32.4 [20.7–47.9] µM | 1700 [1530–1881] pmol min^−1 mg^−1 | non-competitively | CCc1oc2ccccc2c1C(=O)c1cc(Br)c(O)c(Br)c1 [BBR, benzbromarone]
 | 162.8 [126.4–210.1] µM | 3625 [3335–3955] pmol min^−1 mg^−1 | 175.1 [148.8–206.5] µM | 3725 [3522–3947] pmol min^−1 mg^−1 | non-competitively | O=C(O)CSc1nnc(Br)n1-c1ccc(C2CC2)c2ccccc12 [LESU, lesinurad]
